Assay results: publication PMC3534288 (BMC Biophysics, 2012)
Where two headings read alike, the source gives them in different places.

Legend:
[1] = sulfonamide group, 25°C; cited from earlier work
hCA XIII [2] = target: T1, hCA XIII (Homo sapiens, UniProt Q8N1Q1); assay: Intrinsic binding parameters by dissection of binding-linked protonation reactions; conditions: deprotonated inhibitor anion to protonated zinc-bound water form, 25°C
T1 construct: made in house; host or cells: Escherichia coli
T1 sequence (Q8N1Q1 whole entry): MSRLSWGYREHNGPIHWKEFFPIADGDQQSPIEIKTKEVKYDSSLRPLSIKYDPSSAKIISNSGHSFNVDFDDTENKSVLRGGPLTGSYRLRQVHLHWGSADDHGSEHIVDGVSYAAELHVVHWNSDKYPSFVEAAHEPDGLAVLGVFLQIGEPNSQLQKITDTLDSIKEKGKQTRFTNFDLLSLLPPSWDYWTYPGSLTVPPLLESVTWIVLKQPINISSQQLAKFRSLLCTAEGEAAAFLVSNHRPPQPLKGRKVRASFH
Description: Here we use the same formalism to dissect protonation reactions as previously described. The intrinsic binding constant is related to the observed binding constant and the fractions of active binding species:
(1) Kb=Kb_obs/fRSO2NH^−fCAZnH2O
Where the fractions deprotonated sulfonamide and protonated CA as a function of pH are:
(4) ΔbHintr=ΔbHobs−ninhΔb_proton_inhH−nCAΔb_proton_CAH+nΔb_proton_bufH
The intrinsic entropy of binding was obtained by subtracting Gibbs free energy from the enthalpy using standard thermodynamic equations. The intrinsic heat capacity of binding could be determined by carrying out all or part of ITC and TSA experiments at several temperatures.

[3] = Protonation of inhibitor sulfonamide group (ITC titration with acid, pKa); assay type: physicochemical
Method: Dissection of contribution from inhibitor protonation requires a set of experiments with pure inhibitor in the absence of protein to determine the pKa and the enthalpy of inhibitor protonation. The deprotonation pKa could be determined by pH titration as previously explained. The enthalpy of protonation is determined by titrating alkaline solution of the inhibitor with acid. […] Pure crystalline inhibitor is in protonated electrostatically neutral form. Therefore, 1.5 equivalent of NaOH is added to the inhibitor solution to make it deprotonated. […] This enthalpy of the second transition is the enthalpy of interest.

hCA XIII [4] = target: T1, hCA XIII; assay: Isothermal titration calorimetry (ITC) of inhibitor binding to hCA XIII, observed parameters
Method: ITC experiments were performed using a VP-ITC instrument (Microcal, Inc., GE-Healthcare, Northampton, MA, USA). For ligand-protein binding experiments 5–20 μM (usually 10) protein solution in the cell and 50–200 μM (usually 100) ligand solution in the syringe were used. A typical experiment consisted of 25–30 injections (usually 25), 10 μL each, with 3–5 min (usually 4 min) intervals between injections. Experiments were performed at different temperatures in various buffers containing 50 mM NaCl and 0.5-2% DMSO concentration. All experiments were repeated at least twice. For the determination of ligand binding at various pHs, the solution pH was carefully checked in the presence of protein and ligand, in the cell and syringe, respectively.

CA II = conditions: pH 7.0; read-out: observed Kis and Kds; cited from earlier work

CC(=O)Nc1nnc(S(N)(=O)=O)s1 [AZM, acetazolamide]
Ka [1]: 50 nM | TΔb_protonS [1]: 4.47 kcal/mol | pKa [1]: 7.30 | Δb_protonG [1]: -9.97 kcal/mol | Δb_protonH [1]: -5.5 kcal/mol | Δb_protonS [1]: 62.6 J/(mol × K) | TΔbSintr (hCA XIII [2]): -2.13 kcal/mol | ΔbGintr (hCA XIII [2]): -9.92 kcal/mol | ΔbHintr (hCA XIII [2]): -12 kcal/mol | ΔbSintr (hCA XIII [2]): −29.8 J/(mol × K)

CCOc1ccc2nc(S(N)(=O)=O)sc2c1 [EZA, ethoxzolamide]
pKa [1]: 8.0 | Δb_protonCp ([3]; slope of protonation enthalpy versus temperature): 88.7 J/(mol × K) | Ka ([3]; sulfonamide group, 25°C): 10 nM | TΔb_protonS ([3]; sulfonamide group, 25°C): 3.87 kcal/mol | Δb_protonG ([3]; sulfonamide group, 25°C): -10.9 kcal/mol | Δb_protonH ([3]; sulfonamide group, 25°C): -7.05 kcal/mol | Δb_protonS ([3]; sulfonamide group, 25°C): 54.2 J/(mol × K)

NS(=O)(=O)C(F)(F)F [TFMSA, trifluoromethanesulfonamide]
TΔbSintr (hCA XIII [2]): 2.44 kcal/mol | ΔbGintr (hCA XIII [2]): -10.5 kcal/mol | ΔbHintr (hCA XIII [2]): -8.01 kcal/mol | ΔbSintr (hCA XIII [2]): 34.3 J/(mol × K) | net number of uptaken or released protons upon binding (hCA XIII [4]; pH 7.0, 25°C, slope of observed enthalpy versus buffer protonation enthalpy): approximately equal to zero | observed enthalpies of binding, span over pH and buffers (hCA XIII [4]; sodium phosphate and TRIS chloride buffers, 25°C, as a function of pH): −10 to −70 kJ/mol

CS(N)(=O)=O [methanesulfonamide]
Kd (CA II): 300 µM
